Reference: patent US20050042701A1, “Anti-petasin antibodies, methods for the production thereof and their use” (priority 1998, published 2005)
Like-named read-outs stand apart in the source and are kept apart here.

Assay: 1st phase clinical test: pharmacokinetics of petasin in serum after single oral administration of tablets containing butterbur extract (open crossover; enzyme immunoassay)
Assay type: in vivo, human (clinically healthy men)
Details: for concentration at 0.25 h: 0.25 h p.a.; for concentration at 0.5 h: 0.5 h p.a.; for concentration at 0.75 h: 0.75 h p.a.; for concentration at 1 h: 1 h p.a.; for concentration at 1.17 h: 1.17 h p.a. (1.167 in Table 3); for concentration at 1.5 h: 1.5 h p.a.; for concentration at 1.833 h: 1.833 h p.a.; for concentration at 2.167 h: 2.167 h p.a.; for concentration at 2.5 h: 2.5 h p.a.; for concentration at 3 h: 3 h p.a.; for concentration at 4 h: 4 h p.a.; for concentration at 5 h: 5 h p.a.; for concentration at 6 h: 6 h p.a.; for concentration at 8 h: 8 h p.a.; for concentration at 12 h: 12 h p.a.; for concentration at 24 h: 24 h p.a.; for Cmax / MRT / Tmax / half-life / AUC / AUC(0-t): single oral, mean ± SD; for AUC: read-out: AUC0-i; for AUC(0-t): read-out: AUC0-t(last)
Procedure: Petasin ovalbumin is adsorptively bound to polystyrene microtitration plates in a concentration of […] in 0.1 M carbonate buffer, pH=9.5, (100 μl/well) for 16 hours at 4° C. and thereupon sucked off. After washing it two times with 300 μl/well washing buffer (PBS, 0.1% Tween 20) it is blocked for 2 hours at room temperature with 150 μl/well blocking solution (0.6% gelatine, 0.02% […] in PBS) and subsequently washed three times with washing buffer.
50 μl of the serum sample to be tested or the respective standard (1:4 dilution in a sample buffer (PBS, 1% BSA, 0.1% Tween 20, 0.01% thiomersal) and 50 μL of an optimized anti-serum dilution in a sample buffer are simultaneously incubated with shaking for 1 hour at room temperature. Subsequently, the microtitration plate is washed three times with 300 μl/well of washing buffer and incubated for 30 min. at room temperature with 100 μl of anti-rabbit immunoglobulin peroxidase conjugate, diluted in sample buffer, and once more washed as above. Thereupon, it is incubated for 10 min. with 100 μl of a substrate solution ready for use (3.3′, 5.5′-tetramethyl benzidine) per well and the reaction is stopped by adding 100 μl/well of 0.5 M sulfuric acid. The evaluation is carried out at 450 nm in a microtitration plate reader.
In a 1st phase of the clinical test for determining the pharmacokinetic parameters of tablets containing butterbur extract was a single oral administrations of 2 or 4 tablets to 24 clinically healthy men at the age between 18 and 40 years.
The open, crossover test was chosen as method, single administration of each dose in a randomized order with an interval of at least 7 days between the administrations.
Model-independent pharmacokinetic parameters for petasin Statistical methods:
ANOVA, ANOVAlog, Wilcoxon-Mann-Whitney test, Wilcoxon-sign order test

[1] = male, human, serum, oral, 4 tablets, after administering 4 tablets, read-out: Petasin serum concentration Max.
[2] = male, human, serum, oral, 4 tablets, after administering 4 tablets, read-out: Petasin serum concentration Mean
[3] = male, human, serum, oral, 4 tablets, after administering 4 tablets, read-out: Petasin serum concentration Median
[4] = male, human, serum, oral, 4 tablets, after administering 4 tablets, read-out: Petasin serum concentration Min.

concentration at 0 h (male, human, serum, oral, 4 tablets, after administering 4 tablets, 0 h p.a., read-out: Petasin serum concentration Min.): 0 ng/mL
concentration at 0.25 h [1]: 14.9 ng/mL
concentration at 0.25 h [2]: 4.2 ng/mL
concentration at 0.25 h [3]: 3.2 ng/mL
concentration at 0.25 h [4]: 1 ng/mL
concentration at 0.5 h [1]: 96.2 ng/mL
concentration at 0.5 h [2]: 21.2 ng/mL
concentration at 0.5 h [3]: 13.7 ng/mL
concentration at 0.5 h [4]: 1.3 ng/mL
concentration at 0.75 h [1]: 91.8 ng/mL
concentration at 0.75 h [2]: 28.7 ng/mL
concentration at 0.75 h [3]: 23 ng/mL
concentration at 0.75 h [4]: 2.5 ng/mL
concentration at 1 h [1]: 100 ng/mL
concentration at 1 h [2]: 36.6 ng/mL
concentration at 1 h [3]: 38.1 ng/mL
concentration at 1 h [4]: 7.8 ng/mL
concentration at 1.17 h [1]: 100 ng/mL
concentration at 1.17 h [2]: 47.3 ng/mL
concentration at 1.17 h [3]: 43.6 ng/mL
concentration at 1.17 h [4]: 7.5 ng/mL
concentration at 1.5 h [1]: 90.7 ng/mL
concentration at 1.5 h [2]: 40.8 ng/mL
concentration at 1.5 h [3]: 32.4 ng/mL
concentration at 1.5 h [4]: 12.2 ng/mL
concentration at 1.833 h [1]: 100 ng/mL
concentration at 1.833 h [2]: 32 ng/mL
concentration at 1.833 h [3]: 26.8 ng/mL
concentration at 1.833 h [4]: 13.8 ng/mL
concentration at 2.167 h [1]: 76.1 ng/mL
concentration at 2.167 h [2]: 28.9 ng/mL
concentration at 2.167 h [3]: 27.5 ng/mL
concentration at 2.167 h [4]: 11.4 ng/mL
concentration at 2.5 h [1]: 40.9 ng/mL
concentration at 2.5 h [2]: 24.3 ng/mL
concentration at 2.5 h [3]: 26.1 ng/mL
concentration at 2.5 h [4]: 8.4 ng/mL
concentration at 3 h [1]: 49 ng/mL
concentration at 3 h [2]: 17.9 ng/mL
concentration at 3 h [3]: 14.6 ng/mL
concentration at 3 h [4]: 7.2 ng/mL
concentration at 4 h [1]: 20.8 ng/mL
concentration at 4 h [2]: 9.5 ng/mL
concentration at 4 h [3]: 8.1 ng/mL
concentration at 4 h [4]: 2.9 ng/mL
concentration at 5 h [1]: 81.4 ng/mL
concentration at 5 h [2]: 12.4 ng/mL
concentration at 5 h [3]: 7.3 ng/mL
concentration at 5 h [4]: 3.2 ng/mL
concentration at 6 h [1]: 14.7 ng/mL
concentration at 6 h [2]: 5.8 ng/mL
concentration at 6 h [3]: 5 ng/mL
concentration at 6 h [4]: 1.6 ng/mL
concentration at 8 h [1]: 15.7 ng/mL
concentration at 8 h [2]: 3.9 ng/mL
concentration at 8 h [3]: 3.1 ng/mL
concentration at 8 h [4]: 1.4 ng/mL
concentration at 12 h [1]: 5.1 ng/mL
concentration at 12 h [2]: 2.7 ng/mL
concentration at 12 h [3]: 2.5 ng/mL
concentration at 12 h [4]: 1.3 ng/mL
concentration at 24 h [1]: 2.3 ng/mL
concentration at 24 h [2]: 1.3 ng/mL
concentration at 24 h [3]: 1 ng/mL
concentration at 24 h [4]: 1 ng/mL
Cmax (male, human, serum, 2 tablets): 25.5 ± 14.8 ng/mL
MRT (male, human, serum, 2 tablets): 7.32 ± 3.74 h
Tmax (male, human, serum, 2 tablets): 1.62 ± 0.499 h
half-life (male, human, serum, 2 tablets): 7.16 ± 4.61 h
AUC (male, human, serum, 2 tablets): 79.7 ± 42.3 ng·h/mL
AUC(0-t) (male, human, serum, 2 tablets): 65.3 ± 35.6 ng·h/mL
Cmax (male, human, serum, 4 tablets): 58.1 ± 26.7 ng/mL
MRT (male, human, serum, 4 tablets): 6.74 ± 2.47 h
Tmax (male, human, serum, 4 tablets): 1.61 ± 0.926 h
half-life (male, human, serum, 4 tablets): 7.62 ± 3.34 h
AUC (male, human, serum, 4 tablets): 168 ± 73.4 ng·h/mL
AUC(0-t) (male, human, serum, 4 tablets): 151 ± 68.2 ng·h/mL
Compound: C=C(C)C1CC2(C)C(=CC1=O)CCC(OC(=O)/C(C)=C\C)C2C (stereo not drawn) [petasin]
Resorption (single oral administration of 2 or 4 tablets): takes quickly place depending on the dose
